Data on 6 molecules can be found in PMC9117128, “Phage anti-CBASS and anti-Pycsar nucleases subvert bacterial immunity” (Nature, 2022).

One data set has as its target T1, YhfI (Bacillus subtilis, UniProt O07607).
T1 construct: recombinant, homodimer
As to the kind of experiment: HPLC cleavage assay. It is filed as biochemical. The settings on record: Mg2+, Mn2+, pH 7.5, 37 °C.

Another data set addresses T2, PycTIR (Burkholderia cepacia, UniProt A0A0J5WTU0).
T2 sequence (A0A0J5WTU0 1-303): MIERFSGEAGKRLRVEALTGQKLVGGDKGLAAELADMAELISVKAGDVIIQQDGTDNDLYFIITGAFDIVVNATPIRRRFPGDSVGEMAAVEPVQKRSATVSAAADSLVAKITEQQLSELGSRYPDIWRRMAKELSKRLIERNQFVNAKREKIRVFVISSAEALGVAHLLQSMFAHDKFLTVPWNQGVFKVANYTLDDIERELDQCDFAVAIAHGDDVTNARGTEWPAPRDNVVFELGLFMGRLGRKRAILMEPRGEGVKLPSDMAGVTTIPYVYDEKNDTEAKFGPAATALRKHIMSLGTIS
Kind of data set: fluorescent NADase activation assay. Type of data set: biochemical. The settings on record: 500 µM ε-NAD, pH 7.5, room temperature.

Data set [1] concerns the molecule itself. As to the kind of experiment: crystal structure; hanging-drop crystals grown at 18 °C from purified protein (10 mg/ml, 20 mM HEPES-KOH pH 7.5, 80 mM KCl, 1 mM TCEP); homodimer seen in the crystal structures.

T1 sequence (O07607 whole entry): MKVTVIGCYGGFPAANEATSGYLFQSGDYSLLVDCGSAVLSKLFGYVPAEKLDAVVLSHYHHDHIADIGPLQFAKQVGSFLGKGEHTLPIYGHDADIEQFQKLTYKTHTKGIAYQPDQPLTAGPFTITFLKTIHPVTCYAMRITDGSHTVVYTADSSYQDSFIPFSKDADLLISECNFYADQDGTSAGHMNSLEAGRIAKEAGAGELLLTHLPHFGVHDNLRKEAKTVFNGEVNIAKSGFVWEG

With `Nc1nc2c(ncn2[C@@H]2O[C@@H]3COP(=O)(O)O[C@H]3[C@H]2O)c(=O)[nH]1` [cGMP], the HPLC cleavage assay entry on YhfI is on record as “exhibited a strong preference for cAMP/cGMP over cCMP/cUMP cleavage”.

Consider `O=c1ccn([C@@H]2O[C@@H]3COP(=O)(O)O[C@H]3[C@H]2O)c(=O)[nH]1` [cUMP], for which the “fluorescent NADase activation assay” value at PycTIR (activator) is “cUMP-dependent activation of the Pycsar NADase effector PycTIR”.

Regarding `NC(=O)c1ccc[n+]([C@@H]2O[C@H](COP(=O)(O)OP(=O)(O)OC[C@H]3O[C@@H](n4cnc5c4ncn4ccnc54)[C@H](O)[C@@H]3O)[C@@H](O)[C@H]2O)c1` [ε-NAD], at PycTIR (cUMP as activator), the “fluorescent NADase activation assay” value is reported as “Release of fluorescent substrate from an NAD^+ analogue incubated with the Pycsar effector PycTIR”.

B1: Paenibacillus xerothermodurans Apyc1 (enzyme)
chain: SLQIQMIGTGSAFAKKFYNNNALVKCNGFQLLIDCGVTAPRALHELGVPITGIDGILITHIHADHVGGIEEFAFRLKYKYGMTIKLFVPAALVNPLWDHSLRGGLENKAEGLEQLADYFDVVALEEAVVHEIHPGLTVELVRSQHIAGKASYSLLLNNLLFYSSDARFNYAQLVELSTSGRCKYILHDCQLAEPAAVHATLNELLTLPEAVQEMIMLMHYDDEMEQFIGKSGKMSFMQQHKTYSFTEAT
notes: Apyc1 homologue (MBL-fold class II phosphodiesterase) of Paenibacillus xerothermodurans; also called P. xerothermodurans Apyc1; Paenibacillus Apyc1; source: E. coli BL21(DE3) RIL, purified (Ni-NTA, Superdex 75 SEC); not shown: 6×His-SUMO2 or 6×His-MBP-SUMO2, N-terminal, cleaved
With B1, the “stoichiometry N” value in data set [1] is 2.

B2: Paenibacillus J14 Apyc1 (enzyme)
chain: ALRLQMLGTGGAFAKKYFNNNALLYAGDFTLLIDCGITAPLALHTIGKSVEEIDAVLITHIHGDHVGGLEELAFRRKFGSGRKPILYIAENLVEPLWENTLKGGLSQDGVIHSLNDVFDVRLLKESEPAQLAPELKVELIRTPHIPGKPSYSLYINDEIFYSADMTFEPELLMRLVRERGCRRIFHEVQLTGKGEVHTTLQELLSLPTEIQSQILLKHYSDDMESFRGATGNMDFLRQHEVYTL
modifications: selenomethionine-labelled
notes: Apyc1 homologue (MBL-fold class II phosphodiesterase) of Paenibacillus J14, GenBank WP_028539944.1; Crystallised with a hydrolysis-resistant phosphorothioate analogue of cAMP; also called P. J14 Apyc1; Paenibacillus Apyc1; source: E. coli BL21(DE3) RIL, selenomethionine-labelled, purified (Ni-NTA, Superdex 75 SEC); not shown: 6×His-SUMO2 or 6×His-MBP-SUMO2, N-terminal, cleaved
For the molecule B2, the “stoichiometry N” value in data set [1] was 2.

B3: Apyc1 from the phage Bsp38 (enzyme)
chain: MLHTTQIRMVGTGSAFSKKFYNNSALVTFTNGYNLLIDCGHSVPKGLHDADIPLESIDGILITHTHADHIGGLEEVALYNKFVLGGRKIDLLVPNTLVESLWENSLKGGLRYSDTYDDLSLSDYFTVRSLKTFTSGAARTQLEENIAIKLYPTFHVSHMASYAVGLEDRGEDKVFYSSDTIFDEYLIDYALTYSWVFHDCQFFTGGVHASLDELLNYIPEEDQDRVFLMHYGDNMEDFFTKTGRMRFALQGRTYIL
notes: Anti-Pycsar protein Apyc1 (MBL-fold class II phosphodiesterase) of phage Bsp38; The SUMO2 tag was cleaved with SENP2; also called Bsp38 Apyc1; source: E. coli BL21(DE3) RIL, purified (Ni-NTA, Superdex 75 SEC); not shown: 6×His-SUMO2 or 6×His-MBP-SUMO2, N-terminal, cleaved
For B3, in data set [1], the “stoichiometry N” value is 2.

By stoichiometry N is commonly meant the number of molecules, sites or subunits per partner or assembly.
